Measurements taken from ChEMBL document CHEMBL1697731, “Cheminformatics analysis of assertions mined from literature that describe drug-induced liver injury in different species” (Chem Res Toxicol, 2010).
*1 amine or outer side, *2 acyl side, *3 side chain or, on linkers, in order; H or OH if unused. Where a SMILES comes first, the peptide text is derived from it. Bridges are numbered along the chain shown (N, C = ends). [ ]: non-standard residue; d: D form. The star is where a group is joined. hTyr(3S-OH,4S-OH,3'-OSO3H) = N[C@H](C(=O)O)[C@H](O)[C@@H](O)c1ccc(O)c(OS(=O)(=O)O)c1; Orn(4R-OH,5R-OH) = O=C([C@H](C[C@@H](O)[C@@H](O)N[*:3])N[*:1])[*:2]; Pro(3S-OH,4S-Me) = C[C@H]1CN[C@H](C(=O)O)[C@H]1O; X1 = CCCCCOc1ccc(-c2cc(-c3ccc(C(=O)*)cc3)no2)cc1; Gln(3R-OH) = NC(=O)C[C@@H](O)[C@H](N)C(=O)O; Hyp = O=C(O)[C@@H]1C[C@@H](O)CN1

Tests used:
[1] = system: Hepatotoxicity; experiment: Literature-mined compound from Fourches et al multi-species drug-induced liver injury (DILI) dataset, effect in non-rodents
[2] = system: Hepatotoxicity; experiment: Literature-mined compound from Fourches et al multi-species drug-induced liver injury (DILI) dataset, effect in humans; settings: human
[3] = system: Hepatotoxicity; experiment: Literature-mined compound from Fourches et al multi-species drug-induced liver injury (DILI) dataset, effect in rodents; settings: rodentia

| Compound | Hepatotoxicity [1] | Hepatotoxicity [2] | Hepatotoxicity [3] | Hepatotoxicity ([1]; Liver) | Hepatotoxicity ([2]; Liver) | Hepatotoxicity ([3]; Liver) |
| --- | --- | --- | --- | --- | --- | --- |
| CCOC(=O)C1(c2ccccc2)CCN(C)CC1 [MEPERIDINE] | no drug-induced liver injury reported | drug-induced liver injury reported | no drug-induced liver injury reported |  |  |  |
| CCC1(c2ccccc2)NC(=O)N(C)C1=O (centres undefined) [MEPHENYTOIN] | no drug-induced liver injury reported | no drug-induced liver injury reported | drug-induced liver injury reported |  |  |  |
| CCC1(c2ccccc2)C(=O)NC(=O)N(C)C1=O (centres undefined) [MEPHOBARBITAL] | no drug-induced liver injury reported | no drug-induced liver injury reported | drug-induced liver injury reported |  |  |  |
| Cc1cccc(C)c1NC(=O)C1CCCCN1C (centres undefined) [MEPIVACAINE] | no drug-induced liver injury reported | no drug-induced liver injury reported | drug-induced liver injury reported |  |  |  |
| CCCC(C)(COC(N)=O)COC(N)=O [MEPROBAMATE] | no drug-induced liver injury reported | no drug-induced liver injury reported | drug-induced liver injury reported |  |  |  |
| COc1ccc(O)cc1 [MEQUINOL] | no drug-induced liver injury reported | no drug-induced liver injury reported | drug-induced liver injury reported |  |  |  |
| Sc1ncnc2nc[nH]c12 [MERCAPTOPURINE ANHYDROUS] |  |  |  | no drug-induced liver injury reported | drug-induced liver injury reported | drug-induced liver injury reported |
| C[C@@H](O)[C@H]1C(=O)N2C(C(=O)O)=C(S[C@@H]3CN[C@H](C(=O)N(C)C)C3)[C@H](C)[C@H]12 [MEROPENEM] | no drug-induced liver injury reported | drug-induced liver injury reported | no drug-induced liver injury reported |  |  |  |
| Nc1ccc(O)c(C(=O)O)c1 [MESALAMINE] | no drug-induced liver injury reported | drug-induced liver injury reported | drug-induced liver injury reported |  |  |  |
| O=S(=O)([O-])CCS.[Na+] [MESNA] | no drug-induced liver injury reported | no drug-induced liver injury reported | drug-induced liver injury reported |  |  |  |
| C#C[C@]1(O)CC[C@H]2[C@@H]3CCc4cc(OC)ccc4[C@H]3CC[C@@]21C [MESTRANOL] | drug-induced liver injury reported | drug-induced liver injury reported | drug-induced liver injury reported |  |  |  |
| CN(C)C(=N)N=C(N)N [METFORMIN] |  |  |  | drug-induced liver injury reported | drug-induced liver injury reported | drug-induced liver injury reported |
| CCC(=O)C(CC(C)N(C)C)(c1ccccc1)c1ccccc1 (centres undefined) [METHADONE] | no drug-induced liver injury reported | drug-induced liver injury reported | drug-induced liver injury reported |  |  |  |
| CN[C@@H](C)Cc1ccccc1 [METHAMPHETAMINE] | no drug-induced liver injury reported | drug-induced liver injury reported | drug-induced liver injury reported |  |  |  |
| Cc1ccccc1-n1c(C)nc2ccccc2c1=O [METHAQUALONE] | no drug-induced liver injury reported | no drug-induced liver injury reported | drug-induced liver injury reported |  |  |  |
| CSCC[C@H](N)C(=O)O [METHIONINE] |  |  |  | drug-induced liver injury reported | drug-induced liver injury reported | drug-induced liver injury reported |
| C=CCC1(C(C)C#CCC)C(=O)N=C([O-])N(C)C1=O.[Na+] (centres undefined) [METHOHEXITAL SODIUM] | no drug-induced liver injury reported | no drug-induced liver injury reported | drug-induced liver injury reported |  |  |  |
| CN(Cc1cnc2nc(N)nc(N)c2n1)c1ccc(C(=O)N[C@@H](CCC(=O)O)C(=O)O)cc1 [METHOTREXATE] | drug-induced liver injury reported | drug-induced liver injury reported | drug-induced liver injury reported |  |  |  |
| COc1c2occc2cc2ccc(=O)oc12 [METHOXSALEN] | no drug-induced liver injury reported | drug-induced liver injury reported | drug-induced liver injury reported |  |  |  |

| Compound | Hepatotoxicity [1] | Hepatotoxicity [2] | Hepatotoxicity [3] | Hepatotoxicity ([1]; Liver) | Hepatotoxicity ([2]; Liver) | Hepatotoxicity ([3]; Liver) |
| --- | --- | --- | --- | --- | --- | --- |
| COC(F)(F)C(Cl)Cl [METHOXYFLURANE] | no drug-induced liver injury reported | drug-induced liver injury reported | drug-induced liver injury reported |  |  |  |
| COC(=O)c1ccccc1O [METHYL SALICYLATE] | drug-induced liver injury reported | no drug-induced liver injury reported | no drug-induced liver injury reported |  |  |  |
| C[C@](N)(Cc1ccc(O)c(O)c1)C(=O)O [METHYLDOPA] | no drug-induced liver injury reported | drug-induced liver injury reported | no drug-induced liver injury reported |  |  |  |
| COC(=O)C(c1ccccc1)C1CCCCN1 (centres undefined) [METHYLPHENIDATE] | no drug-induced liver injury reported | drug-induced liver injury reported | drug-induced liver injury reported |  |  |  |
| C[C@H]1C[C@@H]2[C@H]([C@@H](O)C[C@@]3(C)[C@H]2CC[C@]3(O)C(=O)CO)[C@@]2(C)C=CC(=O)C=C12 [METHYLPREDNISOLONE] | no drug-induced liver injury reported | drug-induced liver injury reported | drug-induced liver injury reported |  |  |  |
| CCC1(CC)C(=O)NCC(C)C1=O (centres undefined) [METHYPRYLON] | no drug-induced liver injury reported | no drug-induced liver injury reported | drug-induced liver injury reported |  |  |  |
| CCN(CC)CCNC(=O)c1cc(Cl)c(N)cc1OC [METOCLOPRAMIDE] | no drug-induced liver injury reported | drug-induced liver injury reported | drug-induced liver injury reported |  |  |  |
| COCCc1ccc(OCC(O)CNC(C)C)cc1 (centres undefined) [METOPROLOL] | no drug-induced liver injury reported | drug-induced liver injury reported | drug-induced liver injury reported |  |  |  |
| Cc1ncc([N+](=O)[O-])n1CCO [METRONIDAZOLE] | no drug-induced liver injury reported | drug-induced liver injury reported | drug-induced liver injury reported |  |  |  |
| CC(C)(C(=O)c1cccnc1)c1cccnc1 [METYRAPONE] |  |  |  | no drug-induced liver injury reported | drug-induced liver injury reported | drug-induced liver injury reported |
| CN1CCN2c3ccccc3Cc3ccccc3C2C1 (centres undefined) [MIANSERIN] | no drug-induced liver injury reported | drug-induced liver injury reported | drug-induced liver injury reported |  |  |  |
| CCCCCOc1ccc(-c2cc(-c3ccc(C(=O)N[C@H]4C[C@@H](O)[C@@H](O)NC(=O)[C@@H]5[C@@H](O)[C@@H](C)CN5C(=O)[C@H]([C@H](O)CC(N)=O)NC(=O)[C@H]([C@H](O)[C@@H](O)c5ccc(O)c(OS(=O)(=O)O)c5)NC(=O)[C@@H]5C[C@@H](O)CN5C(=O)[C@H]([C@@H](C)O)NC4=O)cc3)no2)cc1 [MICAFUNGIN] (X1-[Orn(4R-OH,5R-OH)]T[Hyp][hTyr(3S-OH,4S-OH,3'-OSO3H)][Gln(3R-OH)][Pro(3S-OH,4S-Me)]; lactam 1-C) | no drug-induced liver injury reported | drug-induced liver injury reported | no drug-induced liver injury reported |  |  |  |
| Clc1ccc(COC(Cn2ccnc2)c2ccc(Cl)cc2Cl)c(Cl)c1 (centres undefined) [MICONAZOLE] | no drug-induced liver injury reported | drug-induced liver injury reported | drug-induced liver injury reported |  |  |  |
| Cc1ncc2n1-c1ccc(Cl)cc1C(c1ccccc1F)=NC2 [MIDAZOLAM] | no drug-induced liver injury reported | no drug-induced liver injury reported | drug-induced liver injury reported |  |  |  |
| CC#C[C@]1(O)CC[C@H]2[C@@H]3CCC4=CC(=O)CCC4=C3[C@@H](c3ccc(N(C)C)cc3)C[C@@]21C [MIFEPRISTONE] | no drug-induced liver injury reported | no drug-induced liver injury reported | drug-induced liver injury reported |  |  |  |
| CCCCCCCCCCCCCCCCOP(=O)([O-])OCC[N+](C)(C)C [MILTEFOSINE] | no drug-induced liver injury reported | drug-induced liver injury reported | no drug-induced liver injury reported |  |  |  |
| CN(C)c1ccc(O)c2c1C[C@H]1C[C@H]3[C@H](N(C)C)C(O)=C(C(N)=O)C(=O)[C@@]3(O)C(O)=C1C2=O [MINOCYCLINE] | no drug-induced liver injury reported | drug-induced liver injury reported | drug-induced liver injury reported |  |  |  |
| Nc1cc(N2CCCCC2)nc(N)[n+]1[O-] [MINOXIDIL] | no drug-induced liver injury reported | drug-induced liver injury reported | drug-induced liver injury reported |  |  |  |
| CN1CCN2c3ncccc3Cc3ccccc3C2C1 (centres undefined) [MIRTAZAPINE] | no drug-induced liver injury reported | drug-induced liver injury reported | no drug-induced liver injury reported |  |  |  |
